Assay results as given in patent US20250361239A1, “PROTEIN DEGRADERS AND USES THEREOF” (ZHUHAI YUFAN BIOTECHNOLOGIES CO., LTD., priority 2022, published 2025).

Key:
HL60 cells = assay: HL60 cell killing experiment (CellTiter-Glo cell viability); format: cell-based; settings: CTG luminescence
Experimental: HL60 cell lines were purchased from ATCC (Cat #ATCC® CCL-240™), IMDM media were purchased from ATCC (Cat #ATCC® 30-2005™), FBS was purchased from Gibco (Cat #10091148), celltiter-glo luminescent cell viability assay was purchased from promega (Cat #G7572), and 96-well plates were purchased from corning (Cat #3610).
The effect of compounds on the growth of HL60 cells was determined by measuring cell viability. Firstly, cells in the logarithmic growth phase were collected and centrifuged, and the culture supernatant was discarded. The centrifuged cells were resuspended in a fresh complete medium, and the cell density was adjusted to 5×10^4 cells/mL. The resuspended cells were inoculated into two opaque 96-well cell culture plates at 100 μL of cell suspension per well, and the cell culture plates were incubated in a cell incubator at 37° C. for 4 h. After 4 h, dilutions (20 μL) of compounds with different concentrations were added. After one of the cell plates was cooled to room temperature, 60 μL of CTG reagent was added, and the luminescence values were read on the instrument as G0. The other one was incubated in a cell incubator for 48 h. After 48 h, 60 μL of CTG reagent was added, and the luminescence values were read on the instrument as G3.
According to the corresponding proliferation rate and concentration of each gradient concentration well, a gradient curve of cell proliferation was fitted using XLFit software, and the GI50 values of compounds were calculated.

GSPT1 = target: T1, GSPT1 (Homo sapiens, UniProt P15170+Q96SW2); assay: Degradation of GSPT1 by the compounds (HiBiT signal in GSPT1/HEK293 hibit cells); format: cell-based; settings: 6 h incubation, Nano Glo HiBiT Lytic Detection
T1 construct: host or cells: HEK293
T1 sequence (P15170 whole entry): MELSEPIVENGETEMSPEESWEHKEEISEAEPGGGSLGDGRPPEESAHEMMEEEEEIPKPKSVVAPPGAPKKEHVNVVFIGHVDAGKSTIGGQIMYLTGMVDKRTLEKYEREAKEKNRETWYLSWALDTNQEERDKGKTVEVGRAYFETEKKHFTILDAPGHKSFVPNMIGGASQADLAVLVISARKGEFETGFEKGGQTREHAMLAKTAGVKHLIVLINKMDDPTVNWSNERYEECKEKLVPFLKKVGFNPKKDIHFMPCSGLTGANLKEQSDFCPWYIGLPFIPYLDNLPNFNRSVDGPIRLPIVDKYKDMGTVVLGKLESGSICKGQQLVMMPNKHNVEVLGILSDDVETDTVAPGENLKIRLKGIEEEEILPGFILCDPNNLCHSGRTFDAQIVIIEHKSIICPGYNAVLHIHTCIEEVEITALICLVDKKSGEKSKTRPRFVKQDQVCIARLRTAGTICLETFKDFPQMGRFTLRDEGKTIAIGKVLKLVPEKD
T1 sequence (Q96SW2 whole entry): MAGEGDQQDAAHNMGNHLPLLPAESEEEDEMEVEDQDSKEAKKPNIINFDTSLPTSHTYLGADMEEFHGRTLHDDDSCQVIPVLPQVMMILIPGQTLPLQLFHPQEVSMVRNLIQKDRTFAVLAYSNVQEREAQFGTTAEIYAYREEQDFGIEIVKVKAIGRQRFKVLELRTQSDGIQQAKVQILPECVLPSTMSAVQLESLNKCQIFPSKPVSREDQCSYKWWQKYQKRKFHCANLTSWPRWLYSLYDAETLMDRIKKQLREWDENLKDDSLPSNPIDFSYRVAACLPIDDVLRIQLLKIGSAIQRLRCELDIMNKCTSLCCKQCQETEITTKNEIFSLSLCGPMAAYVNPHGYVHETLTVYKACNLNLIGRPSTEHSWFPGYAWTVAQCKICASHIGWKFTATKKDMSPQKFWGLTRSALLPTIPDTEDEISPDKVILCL
T1 sequence (Q16531 whole entry partner): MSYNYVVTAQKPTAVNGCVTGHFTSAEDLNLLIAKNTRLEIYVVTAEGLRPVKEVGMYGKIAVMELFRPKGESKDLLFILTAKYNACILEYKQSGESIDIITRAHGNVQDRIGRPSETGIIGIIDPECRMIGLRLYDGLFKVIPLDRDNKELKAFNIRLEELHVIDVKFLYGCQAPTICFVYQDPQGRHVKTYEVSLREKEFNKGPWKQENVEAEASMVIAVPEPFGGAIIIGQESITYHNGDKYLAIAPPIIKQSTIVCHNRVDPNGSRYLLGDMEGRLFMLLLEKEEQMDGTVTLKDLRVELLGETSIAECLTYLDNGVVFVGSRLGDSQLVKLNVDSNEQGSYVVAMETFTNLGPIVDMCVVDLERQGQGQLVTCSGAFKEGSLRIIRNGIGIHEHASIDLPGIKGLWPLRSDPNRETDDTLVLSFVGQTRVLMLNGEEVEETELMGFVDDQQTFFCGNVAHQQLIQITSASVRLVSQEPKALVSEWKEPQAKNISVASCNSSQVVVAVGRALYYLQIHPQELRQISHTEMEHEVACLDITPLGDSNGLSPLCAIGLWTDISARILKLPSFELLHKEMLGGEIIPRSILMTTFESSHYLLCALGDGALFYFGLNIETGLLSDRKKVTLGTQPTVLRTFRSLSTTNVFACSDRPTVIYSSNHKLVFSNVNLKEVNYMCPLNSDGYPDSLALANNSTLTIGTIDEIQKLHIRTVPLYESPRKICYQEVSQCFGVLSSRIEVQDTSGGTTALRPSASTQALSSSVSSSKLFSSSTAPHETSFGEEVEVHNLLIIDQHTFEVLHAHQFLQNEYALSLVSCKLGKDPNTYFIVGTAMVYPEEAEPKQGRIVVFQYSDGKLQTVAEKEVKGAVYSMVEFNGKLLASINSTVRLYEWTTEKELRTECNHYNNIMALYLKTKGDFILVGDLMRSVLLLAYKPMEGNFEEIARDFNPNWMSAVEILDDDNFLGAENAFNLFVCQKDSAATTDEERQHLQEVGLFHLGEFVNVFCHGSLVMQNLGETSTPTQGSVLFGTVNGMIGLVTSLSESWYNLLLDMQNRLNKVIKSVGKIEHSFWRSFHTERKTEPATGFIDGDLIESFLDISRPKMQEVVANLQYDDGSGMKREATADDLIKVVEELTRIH
Experimental: GSPT1/HEK293 hibit cell lines were constructed by Shanghai BioDuro Co., Ltd., HEK293 cell lines were purchased from ATCC (Cat #ATCC® CRL-1573™), DMEM media were purchased from ATCC (Cat #ATCC® 30-2002™), FBS was purchased from Gibco (Cat #10091148), Nano Glo HiBiT Lytic Detection System was purchased from Promega (Cat #N3040), and 96-well plates were purchased from coming (Cat #3610).
The degradation of GSPT1 by the compounds was determined by measuring the intensity of hibit signals in cells. Firstly, the cells were digested with pancreatin, and the digestion was then terminated with medium. The cells were centrifuged, and the supernatant was discarded. The centrifuged cells were resuspended in a fresh complete medium, and the cell density was adjusted to 2.5×10^4 cells/mL. The resuspended cells were inoculated into an opaque 96-well cell culture plate at 100 μL of cell suspension per well, and the cell culture plate was incubated in a cell incubator at 37° C. overnight. The next day, dilutions (20 μL) of compounds with different concentrations were added, and the plate was incubated in a cell incubator for 6 h. After 6 h, 60 μL of Nano Glo HiBiT Lytic Detection System reagent was added and the luminescence values were read on the instrument.
According to the corresponding degradation rate and concentration of each gradient concentration well, a gradient curve of degradation rate was fitted using XLFit software, and the DC50 values of compounds were calculated.

[1] = Homo sapiens, HL-60, 48 h incubation

Structure (SMILES) | GI50 (HL60 cells; [1]) | DC50 (GSPT1) | GI50 (HL60 cells; 48 h incubation)
COC1CCCC(NC(=O)c2cccc(CNc3cccc4c3C(=O)N(C3CCC(=O)NC3=O)C4=O)c2)C1 (stereo not shown) [Example 2] | < 100 nM | < 100 nM | –
O=C1CCC(N2C(=O)c3cccc(NCc4ccnc(C(=O)NC5CCC(c6nc7ccccc7[nH]6)CC5)c4)c3C2=O)C(=O)N1 (stereo not shown) [Example 19] | < 100 nM | < 100 nM | –
Cn1c2cnccc2nc1[C@H]1CC[C@H](NC(=O)c2cccc(CNc3cccc4c3C(=O)N(C3CCC(=O)NC3=O)C4=O)c2)CC1 (stereo partly shown) [Example 34] | < 100 nM | < 100 nM | –
Cn1c2cnccc2nc1[C@H]1CC[C@H](C(=O)Nc2cccc(CNc3cccc4c3C(=O)N(C3CCC(=O)NC3=O)C4=O)c2)CC1 (stereo partly shown) [Example 37] | < 100 nM | < 100 nM | –
O=C1CCC(N2C(=O)c3cccc(NCc4cccc(C(=O)NC5CCC(c6csc7ccncc67)CC5)c4)c3C2=O)C(=O)N1 (stereo not shown) [Example 56] | < 100 nM | < 100 nM | –
O=C1CCC(N2C(=O)c3cccc(NCc4cccc(NC(=O)[C@H]5CC[C@H](c6nc7cccnc7s6)CC5)c4)c3C2=O)C(=O)N1 (stereo partly shown) [Example 59] | < 100 nM | < 100 nM | –
CCCn1c(C2CCC(NC(=O)c3cccc(CNc4cccc5c4C(=O)N(C4CCC(=O)NC4=O)C5=O)c3)CC2)nc2cccnc21 (stereo not shown) [Example 84] | < 100 nM | < 100 nM | –
COc1ccc(CNc2cccc3c2C(=O)N(C2CCC(=O)NC2=O)C3=O)cc1C(=O)N[C@H]1CC[C@H](c2nc3ncccc3s2)CC1 (stereo partly shown) [Example 95] | < 100 nM | < 100 nM | –
O=C1CCC(N2C(=O)c3cccc(NCc4cccc(C(=O)NC5CCC(c6coc7ccccc67)CC5)c4)c3C2=O)C(=O)N1 (stereo not shown) [Example 13] | < 100 nM | < 100 nM | –
Cn1c(C2CCC(NC(=O)c3cccc(CNc4cccc5c4C(=O)N(C4CCC(=O)NC4=O)C5=O)c3)CC2)nc2c3cc[nH]c3ncc21 (stereo not shown) [Example 100] | < 100 nM | < 100 nM | –
O=C1CCC(N2C(=O)c3cccc(NCc4cccc(C(=O)NC5CCC(c6nsc7ccccc67)CC5)c4)c3C2=O)C(=O)N1 (single isomer, unassigned) [Example 52] | < 100 nM | < 100 nM | –
O=C1CCC(N2C(=O)c3cccc(NCCCCC(=O)NC4CCC(c5nc6c(cnc7[nH]cc(C8CCOCC8)c76)[nH]5)CC4)c3C2=O)C(=O)N1 (stereo not shown) [Example 109] | < 100 nM | < 100 nM | –
O=C1CCC(N2C(=O)c3cccc(NCCCCC(=O)NC4CCC(c5nc6c(cnc7[nH]ccc76)[nH]5)CC4)c3C2=O)C(=O)N1 (stereo not shown) [Example 29] | < 100 nM | < 100 nM | –
Cn1c2cccnc2nc1[C@H]1CC[C@H](NC(=O)c2cc(CNc3cccc4c3C(=O)N(C3CCC(=O)NC3=O)C4=O)ccn2)CC1 (stereo partly shown) [Example 42] | < 100 nM | < 100 nM | –
O=C1CCC(N2C(=O)c3cccc(NCc4cccc(C(=O)NC5CCC(c6cc7ccccc7s6)CC5)c4)c3C2=O)C(=O)N1 (stereo not shown) [Example 44] | < 100 nM | < 100 nM | –
O=C1CCC(N2C(=O)c3cccc(NCc4cccc(C(=O)NC5CCC(c6nc7ccncc7n6C6COC6)CC5)c4)c3C2=O)C(=O)N1 (stereo not shown) [Example 101] | < 100 nM | < 100 nM | –
Cn1c2cc(N)ccc2nc1[C@H]1CC[C@H](NC(=O)c2cc(CNc3cccc4c3C(=O)N(C3CCC(=O)NC3=O)C4=O)ccn2)CC1 (stereo partly shown) [Example 130] | < 100 nM | < 100 nM | –
O=C1CCC(N2C(=O)c3cccc(NCc4cccc(C(=O)NC5CCC(c6n[nH]c7ccccc67)CC5)c4)c3C2=O)C(=O)N1 (stereo not shown) [Example 14] | < 100 nM | < 100 nM | –
Cn1c(C2CCC(NC(=O)c3cccc(CNc4cccc5c4C(=O)N(C4CCC(=O)NC4=O)C5=O)c3)CC2)nc2ccccc21 (stereo not shown) [Example 33] | < 100 nM | < 100 nM | –

Structure (SMILES) | GI50 (HL60 cells; [1]) | DC50 (GSPT1) | GI50 (HL60 cells; 48 h incubation)
O=C1CCC(N2C(=O)c3cccc(NCc4cccc(C(=O)NC5CCC(c6cc7ccccc7o6)CC5)c4)c3C2=O)C(=O)N1 (stereo not shown) [Example 12] | < 100 nM | < 100 nM | –
O=C1CCC(N2C(=O)c3cccc(NCc4cccc(C(=O)NC5CCC(c6cc7sccc7s6)CC5)c4)c3C2=O)C(=O)N1 (stereo not shown) [Example 66] | < 100 nM | < 100 nM | –
Cn1c2ccncc2nc1[C@H]1CC[C@H](C(=O)Nc2cccc(CNc3cccc4c3C(=O)N(C3CCC(=O)NC3=O)C4=O)c2)CC1 (stereo partly shown) [Example 36] | < 100 nM | < 100 nM | –
Cn1c(C2CCC(NC(=O)c3cccc(CNc4cccc5c4C(=O)N(C4CCC(=O)NC4=O)C5=O)n3)CC2)nc2ccncc21 (stereo not shown) [Example 21] | < 100 nM | < 100 nM | –
COc1ccc2c(c1)nc(C1CCC(NC(=O)c3cccc(CNc4cccc5c4C(=O)N(C4CCC(=O)NC4=O)C5=O)c3)CC1)n2C (stereo not shown) [Example 85] | < 100 nM | < 100 nM | –
COc1ccc(CNc2cccc3c2C(=O)N(C2CCC(=O)NC2=O)C3=O)cc1C(=O)N[C@H]1CC[C@H](c2nc3ccncc3s2)CC1 (stereo partly shown) [Example 99] | < 100 nM | < 100 nM | –
CNc1ccc2c(c1)nc(C1CCC(NC(=O)c3cccc(CNc4cccc5c4C(=O)N(C4CCC(=O)NC4=O)C5=O)c3)CC1)n2C (stereo not shown) [Example 86] | < 100 nM | < 100 nM | –
Cn1c(C2CCC(NC(=O)c3cc(CNc4cccc5c4C(=O)N(C4CCC(=O)NC4=O)C5=O)ccn3)CC2)nc2ccccc21 (stereo not shown) [Example 35] | < 100 nM | < 100 nM | –
O=C1CCC(N2C(=O)c3cccc(NCc4cccc(C(=O)NC5CCC(c6n[nH]c7ccccc67)CC5)c4)c3C2=O)C(=O)N1 (stereo not shown) [Example 15] | – | < 100 nM | < 100 nM
Cn1cc(C2CCOCC2)c2c3nc(C4CCC(NC(=O)CCCCNc5cccc6c5C(=O)N(C5CCC(=O)NC5=O)C6=O)CC4)[nH]c3cnc21 (stereo not shown) [Example 112] | < 100 nM | < 100 nM | –
O=C1CCC(N2C(=O)c3cccc(NCc4cccc(C(=O)NC5CCC(c6nc7cccnc7[nH]6)CC5)c4)c3C2=O)C(=O)N1 (stereo not shown) [Example 18] | < 100 nM | < 100 nM | –
O=C1CCC(N2C(=O)c3cccc(NCc4cccc(C(=O)NC5CCC(c6nc7ccccc7o6)CC5)c4)c3C2=O)C(=O)N1 (stereo not shown) [Example 17] | – | < 100 nM | < 100 nM
O=C1CCC(N2C(=O)c3cccc(NCc4cccc(C(=O)NC5CCC(c6csc7cncnc67)CC5)c4)c3C2=O)C(=O)N1 (stereo not shown) [Example 60] | < 100 nM | < 100 nM | –
O=C1CCC(N2C(=O)c3cccc(NCc4ccc(F)c(C(=O)N[C@H]5CC[C@H](c6nc7cccnc7s6)CC5)c4)c3C2=O)C(=O)N1 (stereo partly shown) [Example 80] | < 100 nM | < 100 nM | –
O=C1CCC(N2C(=O)c3cccc(NCc4cccc(C(=O)NC5CCCC(F)C5)c4)c3C2=O)C(=O)N1 (stereo not shown) [Example 1] | < 100 nM | < 100 nM | –
O=C1CCC(N2C(=O)c3cccc(NCCCCC(=O)NC4CCC(c5nc6ccncc6[nH]5)CC4)c3C2=O)C(=O)N1 (stereo not shown) [Example 6] | < 100 nM | < 100 nM | –
O=C1CCC(N2C(=O)c3cccc(NCc4cccc(C(=O)NC5CCC(c6cc7ccncc7s6)CC5)c4)c3C2=O)C(=O)N1 (stereo not shown) [Example 50] | < 100 nM | < 100 nM | –
O=C1CCC(N2C(=O)c3cccc(NCCCCC(=O)NC4CCC(c5nc6ccccc6[nH]5)CC4)c3C2=O)C(=O)N1 (stereo not shown) [Example 5] | < 100 nM | < 100 nM | –
Cn1c(C2CCC(NC(=O)c3cc(CNc4cccc5c4C(=O)N(C4CCC(=O)NC4=O)C5=O)ccn3)CC2)nc2ccncc21 (stereo not shown) [Example 25] | – | < 100 nM | < 100 nM
